Test results as given in patent US7456274B2, “Inhibition of metallo-β-lactamase” (priority 2003, dated 2008).
Entries after “also recorded” stand apart in the source; their conditions may differ. Where two headings read alike, the source gives them in different places.

Tests used:
class B β-lactamases = conditions: cited from earlier work
[1] = target: metallo-β-lactamase from Stenotrophomonas maltophilia (Stenotrophomonas maltophilia, UniProt P52700); conditions: Yang and Crowder (1999); cited from earlier work
[2] = target: metallo-β-lactamases (Bacillus cereus enzyme) (Bacillus cereus, UniProt P04190); conditions: Mollard et al. (2001); cited from earlier work
[3] = target: B. cereus 5/B/6 metallo-β-lactamase (Bacillus cereus, UniProt P14488); assay type: biochemical; conditions: for time dependence of the reversible inhibition: 50 mM MOPS, cephalosporin C; for time dependence of the reversible inhibition / IC50: pH=7.0; for inhibition pattern from steady-state kinetic study: Lineweaver-Burk plot; for IC50: enzyme preincubated 15 min at 30° C. in 50 mM MOPS, 4 mM cephalosporin C
[4] = target: T1, bovine carboxypeptidase A (Bos taurus, UniProt P00730); assay: Bovine carboxypeptidase A assay (hippuryl-L-phenylalanine hydrolysis), specificity test; assay type: biochemical; conditions: 25 nM; 1 mM hippuryl-L-phenylalanine; 25° C., pH=7.5
T1 construct: purchased Sigma
T1 sequence (P00730 111-419): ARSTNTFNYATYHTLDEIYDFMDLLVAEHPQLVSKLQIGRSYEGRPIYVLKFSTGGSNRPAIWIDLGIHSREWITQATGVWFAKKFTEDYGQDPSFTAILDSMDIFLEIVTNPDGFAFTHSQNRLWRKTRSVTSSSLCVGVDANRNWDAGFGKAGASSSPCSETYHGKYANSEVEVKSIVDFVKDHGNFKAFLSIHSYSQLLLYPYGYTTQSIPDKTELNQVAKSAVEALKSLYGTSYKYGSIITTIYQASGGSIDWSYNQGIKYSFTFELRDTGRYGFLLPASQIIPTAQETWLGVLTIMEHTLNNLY
Experimental: Method for assay of bovine carboxypeptidase A. The assay of bovine carboxypeptidase A is based on the method of Folk and Schirmer (1963). The rate of hydrolysis of hippuryl-L-phenylalanine is determined by monitoring the increase in absorbance at 254 nm ([…], pH=7.5). The enzyme was dissolved in 10% lithium chloride to a concentration of 1-3 units per mL. Hippuryl-L-phenylalanine (0.001 M) was dissolved in 0.05 M TrisHCl, pH=7.5 with 0.5 M sodium chloride. In a 1 cm of cuvette, 1.0 mL of substrate was added and incubated in the spectrophotometer at 25° C. for 3-4 minutes to reach temperature equilibration and establish blank rate. Fifty μL of diluted enzyme was added to record increase in A254. The enzyme was preincubated with/without the inhibitor in the buffer for 15 min. at 25° C.

[5] = target: metallo-β-lactamase from B. fragilis (Bacteroides fragilis, UniProt P25910); conditions: NMR characterization; Scrofani et al. (1999); cited from earlier work
[6] = intercept replot of Lineweaver-Burk data, read-out: Ki′ (dissociation constant for the inhibitor from the enzyme-substrate-inhibitor complex)
[7] = slope replot of Lineweaver-Burk data, read-out: Ki (dissociation constant for the inhibitor from the enzyme-inhibitor complex)

Sequence of metallo-β-lactamase from Stenotrophomonas maltophilia (P52700 34-290): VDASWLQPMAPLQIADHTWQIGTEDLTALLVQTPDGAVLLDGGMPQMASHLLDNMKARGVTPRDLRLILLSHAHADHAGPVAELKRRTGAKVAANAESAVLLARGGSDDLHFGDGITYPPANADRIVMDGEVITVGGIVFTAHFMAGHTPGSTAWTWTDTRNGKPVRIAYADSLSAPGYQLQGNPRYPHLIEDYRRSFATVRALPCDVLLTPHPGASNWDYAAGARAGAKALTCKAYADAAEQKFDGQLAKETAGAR
Sequence of B. cereus 5/B/6 metallo-β-lactamase (P14488 30-256): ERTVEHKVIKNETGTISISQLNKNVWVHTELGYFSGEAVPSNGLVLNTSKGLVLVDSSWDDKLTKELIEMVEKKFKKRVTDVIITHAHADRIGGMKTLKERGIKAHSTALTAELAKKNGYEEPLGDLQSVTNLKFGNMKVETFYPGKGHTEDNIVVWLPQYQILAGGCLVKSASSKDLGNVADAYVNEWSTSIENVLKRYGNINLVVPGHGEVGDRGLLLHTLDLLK
Sequence of metallo-β-lactamase from B. fragilis (P25910 19-249): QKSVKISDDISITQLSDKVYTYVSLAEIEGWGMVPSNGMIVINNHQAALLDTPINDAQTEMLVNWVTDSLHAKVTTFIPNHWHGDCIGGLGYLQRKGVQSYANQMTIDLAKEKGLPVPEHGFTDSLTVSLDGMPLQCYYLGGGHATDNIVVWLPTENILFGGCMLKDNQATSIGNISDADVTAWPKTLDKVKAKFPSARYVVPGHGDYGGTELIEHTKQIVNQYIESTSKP
Sequence of metallo-β-lactamases (Bacillus cereus enzyme) (P04190 31-257): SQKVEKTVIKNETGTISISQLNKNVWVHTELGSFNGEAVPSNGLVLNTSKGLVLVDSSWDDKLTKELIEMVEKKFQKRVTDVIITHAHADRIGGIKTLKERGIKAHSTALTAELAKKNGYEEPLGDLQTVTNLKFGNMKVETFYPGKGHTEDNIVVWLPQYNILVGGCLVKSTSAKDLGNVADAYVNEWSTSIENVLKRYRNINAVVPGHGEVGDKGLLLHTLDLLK

Molecule | inhibition pattern from steady-state kinetic study [3] | IC50 [3] | Ki [3, 6] | Ki [3, 7] | further results
O=C(O)[C@H]1/C(=C/CO)O[C@@H]2CC(=O)N21 [clavulanic acid] | – | – | – | – | inhibition of class B β-lactamases (class B β-lactamases): do not inhibit
N-benzylacetyl-D-alanylthioacetic acid | – | – | – | – | Ki [1]: 1600 ± 300 nM; type of inhibition [1]: competitive inhibitors
O=C1C[C@H]2SC=CN12 [penem] | – | – | – | – | inhibition of class B β-lactamases (class B β-lactamases): do not inhibit
R-thiomandelic acid | – | – | – | – | Ki [2]: 90 nM
5′-d(CCAAACTTGG)-3′ [10-mer] | noncompetitive inhibition | – | – | – | time dependence of the reversible inhibition ([3]; 1.0 nM of the 10-mer): time-independent; also recorded: not time-dependent; fold lower Ki than the Ki reported for R-thiomandelic acid ([3]; vs. Mollard et al. (2001)): 290 fold; effect on the activity of the carboxypeptidase A [4]: no effect; also recorded: did not show any inhibition
5′-d(AACCAAACTTGGATCGGTGCACATGTCGAA)-3′ [30-mer] | noncompetitive inhibition | 1.2 nM | 11 nM | 0.92 nM | time dependence of the reversible inhibition ([3]; 0.5 nM the 30-mer): time-independent; also recorded: not time-dependent; effect on the activity of the carboxypeptidase A [4]: no effect; also recorded: did not show any inhibition
CC1(C)SCN(C(=O)[C@@H](CS)Cc2ccccc2)[C@H]1C(=O)O [3-[2′-(S)-benzyl-3′-mercaptopropanoyl]-4-(S)-carboxy-5,5-dimethylthiazolidine] | – | – | – | – | binding to metallo-β-lactamase [5]: “tightly” binds
O=C(Cc1ccccc1)NCCS [N-(2′-mercaptoethyl)-2-phenylacetamide] | – | – | – | – | Ki [1]: 50000 ± 3000 nM; type of inhibition [1]: competitive inhibitors
OCCS [2-mercaptoethanol, reference compound] | noncompetitive inhibition | 4000 nM | 4000 nM | 2000 nM | –
O=C(O)CN(CCN(CC(=O)O)CC(=O)O)CC(=O)O [EDTA, reference compound] | noncompetitive inhibition | 3100 nM | 2900 nM | 750 nM | –
